# Laboratory results reported in patent US8158165B2, “Preventative treatment and remission of allergic diseases” (CSIR, priority 2006, dated 2012).
# What was measured:
# [1] = Cytotoxicity, Mediator Release, Con A-Induced (AlamarBlue); format: cell-based, human; settings: human, pH 7.4
# Experimental: (§1) For the ConA-Induced mediator release/cytotoxicity test, the test compound and/or vehicle is incubated with a suspension of human peripheral blood mononuclear leukocytes (PBMNL, 1×10^5/well) in the presence of Concanavalin A (Con A, 20 μg/ml) in RPMI buffer (pH 7.4) at 37° C. overnight in 5% CO2. AlamarBlue reagent is added and the cells are incubated at 37° C. for 16 hours. Living cells take up AlamarBlue and emit fluorescence. Fluorescence intensity is measured using a SpectraFluor Plus plate reader with excitation at 530 nm and emission at 590 nm. A decrease of 50% or more (50%) in fluorescence intensity relative to the vehicle treated controls indicates significant cytotoxicity. […] Dexamethasone is used as standard reference agent.
# [2] = test system: human peripheral blood mononuclear leukocytes (PBMNL); assay: as above; format: cell-based
# Experimental: as §1
# [3] = test system: Human T lymphocytic Jurkat cells; assay: Cytotoxicity, Transcription Response NF-κB; format: cell-based
# Experimental: Human T lymphocytic Jurkat cells, transfected with a response element-lacZ reporter in which transcription of the β-galactosidase gene is directed by the binding site for the NF-κB transcription factor, are used. Test compound and/or vehicle are incubated with the cells (1.5×10^6/ml) in the presence of 0.5 μM A23187 and 50 ng/ml PMA (phorbol 12-myristate 13-acetate) in RPMI-1640 pH 7.4 at 37° C. for 4 hours. Test compound-induced β-galactosidase activity is determined by the conversion of FDG (fluorescein di-β-D-galactopyranoside) to fluorescein. Fluorescence intensity is read on SpectroFluor Plus plate reader. […] […] These same concentrations are concurrently applied to a separate group of treated cells and evaluated for possible compound-induced cytotoxicity only if significant stimulation or inhibition is observed (Cat. #361100).
# Phosphodiesterase PDE4 = assay: phosphodiesterase PDE4 enzyme assay; format: biochemical, human; settings: 100 μg/ml
# Experimental: Based on the results shown in Table 6, it follows that the combined fraction (WG-I-5AB+WG-I-5C) is effective in binding to the glucocorticoid receptor (GR) site. […] This inhibitory effect implies that the combined fraction (WG-I-5AB+WG-I-5C) has a bronchodilatory effect. For the PDE4 test, PDE4 which has been partially purified from human U-937 pronocytic cells is used. The test compound and/or vehicle is incubated with 0.2 μg enzyme and 1 μM cAMP containing 0.01 μM [^3H]cAMP in Tris buffer pH 7.5 for 20 minutes at 30° C. The reaction is terminated by boiling for 2 minutes and the resulting AMP is converted to adenosine by addition of 10 mg/ml snake venom necleotidase and further incubation at 30° C. for 10 minutes. Unhydrolyzed cAMP is bound to AGI-X2 resin, and remaining [^3H]adenosine in the aqueous phase is quantified by scintillation counting. Compounds are screened at 100 μM. IBMX (3-isobutyl-1-methylxanthine) is used as standard reference agent.
# [4] = test system: NF-κB transcription factor; assay: Transcription Response, NF-κB (Jurkat lacZ reporter); format: cell-based, human
# Description: The assay is described in Lenardo M J, Baltimaore D. Lenardo M J, Baltimaore D, NF-κB: A pleiotropic mediator of inducible and tissue specific gene control. Cell. 58: 227-229, 1989, the contents of which are incorporated herein by way of reference.
# Human T lymphocytic Jurkat cells, transfected with a response element-lacZ reporter in which transcription of the β-galactosidase gene is directed by the binding site for the NF-κB transcription factor, are used. Test compound and/or vehicle are incubated with the cells (1.5×10^6/ml) in the presence of 0.5 μM A23187 and 50 ng/ml PMA (phorbol 12-myristate 13-acetate) in RPMI-1640 pH 7.4 at 37° C. for 4 hours. Test compound-induced β-galactosidase activity is determined by the conversion of FDG (fluorescein di-β-D-galactopyranoside) to fluorescein. Fluorescence intensity is read on SpectroFluor Plus plate reader. […]
# [5] = 10 μM, fifth (last) step of the series
# [6] = 100 μM, listed as compound of formula 1
structure (smiles),measurement,setting,value
"Cc1coc2c1C[C@H]1[C@H](C)C=CC(=O)[C@]1(C)C2 (relative stereo) [compound 1, 4,4a,5,9-tetrahydro-3,5,8a-trimethylnaptho[2,3-b]furan-8-one]",IC50,[1],58.5 µM
same,cytotoxicity observed in mediator release bio-assays (in words),[2],Limited cytotoxicity
same,"ANT. Cytotoxicity, Mediator Release, Con A-Induced",[2]; 10 nM,−1%
same,"ANT. Cytotoxicity, Mediator Release, Con A-Induced",[2]; 0.1 μM,0%
same,"ANT. Cytotoxicity, Mediator Release, Con A-Induced",[2]; 1 μM,18%
same,"ANT. Cytotoxicity, Mediator Release, Con A-Induced",[2]; 10 μM,35%
same,"ANT. Cytotoxicity, Mediator Release, Con A-Induced",[2]; 100 μM,53%
same,"% RESPONSE Ant, Cytotoxicity, Transcription Response NF-κB",[3]; 0.1 μM,6%
same,"% RESPONSE Ant, Cytotoxicity, Transcription Response NF-κB",[3]; 1 μM,2%
same,"% RESPONSE Ant, Cytotoxicity, Transcription Response NF-κB",[3]; 10 μM,2%
same,"% RESPONSE Ant, Cytotoxicity, Transcription Response NF-κB",[3]; [5],1%
same,"% RESPONSE Ant, Cytotoxicity, Transcription Response NF-κB",[3]; 100 μM,−3%
same,"% RESPONSE Ant, Cytotoxicity, Transcription Response NF-κB",[3]; [6],no apparent cytotoxicity
same,Inhibition (%) Phosphodiesterase PDE4,Phosphodiesterase PDE4,35%
same,"% RESPONSE Ant, Transcription Response, NF-κB",[4]; 0.1 μM,0%
same,"% RESPONSE Ant, Transcription Response, NF-κB",[4]; 1 μM,7%
same,"% RESPONSE Ant, Transcription Response, NF-κB",[4]; 10 μM,27%
same,"% RESPONSE Ant, Transcription Response, NF-κB",[4]; [5],5%
same,"% RESPONSE Ant, Transcription Response, NF-κB",[4]; 100 μM,113%
same,"% RESPONSE Ant, Transcription Response, NF-κB",[4]; [6],> 100%
same,IC50,"[4]; Homo sapiens, Jurkat, read-out: IC50 inhibition of NF-κB transcription factor",15.6 µg/mL
